Test results published in ChEMBL document CHEMBL1201862, “PubChem BioAssay data set” (2004).
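1) Cells in 96-well plates. 2) Compound, 48 h, 5 concentrations. 3) Linear interpolation between surrounding doses. 4) Unreached endpoint = highest concentration. The concentration for 50% growth inhibition is given as GI50.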 Calls of active or inactive are those of the source. Rule as the data show it: active = GI50 up to about 1.1 µM and inactive = higher.

Legend:
Assay in all cases: DTP human tumour cell line panel, 48 h
Malme-3M = system: Malme-3M
NCI-H226 = system: NCI-H226
SNB-78 = system: SNB-78
HCT-15 = system: HCT-15
SNB-19 = system: SNB-19
A549 = system: A549
U-251 = system: U-251
A498 = system: A498
SF-268 = system: SF-268
DLD-1 = system: DLD-1
SNB-75 = system: SNB-75
LXFL 529 = system: LXFL 529
HOP-62 = system: HOP-62
RPMI-8226 = system: RPMI-8226
OVCAR-8 = system: OVCAR-8
SN12C = system: SN12C
UO-31 = system: UO-31
HT-29 = system: HT-29
SK-MEL-28 = system: SK-MEL-28
SR = system: SR
SK-OV-3 = system: SK-OV-3
UACC-62 = system: UACC-62
MOLT-4 = system: MOLT-4
RXF 631 = system: RXF 631
HCC 2998 = system: HCC 2998
OVCAR-5 = system: OVCAR-5
SF-295 = system: SF-295
M14 = system: M14
SK-MEL-5 = system: SK-MEL-5
SF-539 = system: SF-539
DMS-273 = system: DMS-273
NCI-H460 = system: NCI-H460
RXF 393 = system: RXF 393
DMS-114 = system: DMS-114
KM12 = system: KM12
OVCAR-4 = system: OVCAR-4
SW-620 = system: SW-620
OVCAR-3 = system: OVCAR-3
UACC-257 = system: UACC-257
KM-20L2 = system: KM-20L2
CAKI-1 = system: CAKI-1
LOX IMVI = system: LOX IMVI
SK-MEL-2 = system: SK-MEL-2
K562 = system: K562
EKVX = system: EKVX
NCI-H522 = system: NCI-H522
XF498 = system: XF498
786-0 = system: 786-0
ACHN = system: ACHN
IGROV-1 = system: IGROV-1
CCRF-CEM = system: CCRF-CEM
HOP-92 = system: HOP-92
HL-60 = system: HL-60
NCI-H23 = system: NCI-H23
HCT-116 = system: HCT-116
COLO 205 = system: COLO 205
HOP-18 = system: HOP-18
M19-MEL = system: M19-MEL
TK-10 = system: TK-10

`O=C(/C=C/c1c(O)ccc2ccccc12)c1ccccc1` was tested, and the GI50 (Malme-3M) was > 100 µM (inactive), the GI50 (NCI-H226) was > 100 µM (inactive) and the GI50 (SNB-78) was > 100 µM (inactive). For the same compound, the GI50 (HCT-15) was > 100 µM, the GI50 (SNB-19) was > 100 µM (inactive) and the GI50 (A549) was > 100 µM (inactive). The GI50 (U-251) was > 100 µM (inactive), the GI50 (A498) was > 100 µM (inactive) and the GI50 (SF-268) was > 100 µM (inactive). The GI50 (DLD-1) was 85.7 µM (inactive), the GI50 (SNB-75) was 0.413 µM (active) and the GI50 (LXFL 529) was > 100 µM (inactive). For the same compound, the GI50 (HOP-62) was > 100 µM (inactive), the GI50 (RPMI-8226) was 27 µM (inactive) and the GI50 (OVCAR-8) was > 100 µM (inactive). For the same compound, the GI50 (SN12C) was > 100 µM (inactive), the GI50 (UO-31) was > 100 µM (inactive) and the GI50 (HT-29) was 15.7 µM (inactive). The GI50 (SK-MEL-28) was > 100 µM (inactive), the GI50 (SR) was > 100 µM (inactive) and the GI50 (SK-OV-3) was > 100 µM (inactive). The GI50 (UACC-62) was > 100 µM (inactive), the GI50 (MOLT-4) was > 100 µM (inactive) and the GI50 (RXF 631) was > 100 µM (inactive). For the same compound, the GI50 (HCC 2998) was > 100 µM (inactive), the GI50 (OVCAR-5) was > 100 µM (inactive) and the GI50 (SF-295) was > 100 µM (inactive). The GI50 (M14) was > 100 µM (inactive), the GI50 (SK-MEL-5) was > 100 µM (inactive) and the GI50 (SF-539) was > 100 µM (inactive). For the same compound, the GI50 (DMS-273) was > 100 µM (inactive), the GI50 (NCI-H460) was > 100 µM (inactive) and the GI50 (RXF 393) was > 100 µM (inactive). For the same compound, the GI50 (DMS-114) was > 100 µM (inactive), the GI50 (KM12) was > 100 µM (inactive) and the GI50 (OVCAR-4) was > 100 µM (inactive). The GI50 (SW-620) was 22.5 µM (inactive), the GI50 (OVCAR-3) was > 100 µM (inactive) and the GI50 (UACC-257) was > 100 µM (inactive). The GI50 (KM-20L2) was > 100 µM (inactive), the GI50 (CAKI-1) was > 100 µM (inactive) and the GI50 (LOX IMVI) was 19.3 µM (inactive). The GI50 (SK-MEL-2) was > 100 µM (inactive), the GI50 (K562) was 58.5 µM (inactive) and the GI50 (EKVX) was > 100 µM (inactive). The GI50 (NCI-H522) was > 100 µM (inactive), the GI50 (XF498) was > 100 µM (inactive) and the GI50 (786-0) was 63.5 µM (inactive). The GI50 (ACHN) was > 100 µM (inactive), the GI50 (IGROV-1) was > 100 µM (inactive) and the GI50 (CCRF-CEM) was 35.6 µM (inactive). For the same compound, the GI50 (HOP-92) was > 100 µM (inactive), the GI50 (HL-60) was 35.7 µM (inactive) and the GI50 (NCI-H23) was 95.7 µM (inactive). For the same compound, the GI50 (HCT-116) was > 100 µM (inactive), the GI50 (COLO 205) was > 100 µM (inactive) and the GI50 (HOP-18) was 36.8 µM (inactive). For the same compound, the GI50 (M19-MEL) was 29.4 µM (inactive) and the GI50 (TK-10) was > 100 µM (inactive).
